Measured values reported in patent US10385069B2, “Imidazo[2,1-B]thiazole and 5,6-dihydroimidazo[2,1-B]thiazole derivatives useful as S100-inhibitors” (Active Biotech AB, priority 2015, dated 2019).

Biological target: T1, interaction between biotinylated human S100A9 and human RAGE-Fc (Homo sapiens, UniProt P06702)
T1 construct: made in house; host or cells: E. coli
T1 sequence (P06702 1-114): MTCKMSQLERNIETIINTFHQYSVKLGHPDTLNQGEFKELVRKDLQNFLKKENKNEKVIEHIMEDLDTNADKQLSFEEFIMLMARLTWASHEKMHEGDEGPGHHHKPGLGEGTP
Assay: AlphaScreen inhibition assay, biot-hS100A9:hRAGE-Fc
Type: binding
Conditions: biot-hS100A9 pre-incubated with compound 1 h, assay buffer with CaCl2 and ZnCl2
Procedure, shortened: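 Biotinylated human S100A9, preincubated with compound, binds human RAGE-Fc on protein A Acceptor beads in HBS-P with CaCl2 and ZnCl2; streptavidin Donor beads added, AlphaScreen signal read. Protein levels set by cross-titration; beads 20 μg/mL final. Percent inhibition versus DMSO control; IC50 from varied compound concentrations.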

Row | Structure (SMILES) | IC50
1 | O=C(O)C(O)c1cn2c(n1)sc1c(Cl)c(Cl)ccc12 (centres unmarked) [Example 188, 2-{9,10-Dichloro-7-thia-2,5-diazatricyclo[6.4.0.0^2,6]dodeca-1(8),3,5,9,11-pentaen-4-yl}-2-hydroxyacetic acid] | 2190 nM
2 | O=C(O)c1cn2c(n1)sc1c(Cl)c(F)ccc12 [Example 2, 9-Chloro-10-fluoro-7-thia-2,5-diazatricyclo[6.4.0.0^2,6]dodeca-1(8),3,5,9,11-pentaene-4-carboxylic acid] | 250 nM
3 | CS(=O)(=O)NC(=O)Cc1cn2c(n1)sc1c(Cl)c(Cl)ccc12 [Example 30, 2-{9,10-Dichloro-7-thia-2,5-diazatricyclo[6.4.0.0^2,6]dodeca-1(8),3,5,9,11-pentaen-4-yl}-N-methanesulfonylacetamide] | 2910 nM
4 | O=C(O)c1cn2c3c(sc2n1)CCCC3 [Example 31, 7-Thia-2,5-diazatricyclo[6.4.0.0^2,6]dodeca-1(8),3,5-triene-4-carboxylic acid] | 2390 nM
5 | O=C(O)c1cn2c3c(sc2n1)CC(c1ccccc1)CC3 (centres unmarked) [Example 34, 10-Phenyl-7-thia-2,5-diazatricyclo[6.4.0.0^2,6]dodeca-1(8),3,5-triene-4-carboxylic acid] | 1500 nM
6 | CC1(C)Cc2c(sc3nc(CC(=O)O)cn23)C(C)(C)C1 [Example 46, 2-{9,9,11,11-Tetramethyl-7-thia-2,5-diazatricyclo[6.4.0.0^2,6]dodeca-1(8),3,5-trien-4-yl}acetic acid] | 4940 nM
7 | CN1CCN(c2c(C(=O)O)nc3sc4c(Cl)c(F)ccc4n23)CC1 [Example 276, 9-Chloro-10-fluoro-3-(4-methylpiperazin-1-yl)-7-thia-2,5-diazatricyclo[6.4.0.0^2,6]dodeca-1(8),3,5,9,11-pentaene-4-carboxylic acid] | 390 nM
8 | CON(C)Cc1c(C(=O)O)nc2sc3c(n12)CCC(C(C)(C)C)C3 (centres unmarked) [Example 257, 10-tert-Butyl-3-{[methoxy(methyl)amino]methyl}-7-thia-2,5-diazatricyclo[6.4.0.0^2,6]dodeca-1(8),3,5-triene-4-carboxylic acid] | 890 nM
9 | O=C(O)c1cn2c(n1)sc1c(Cl)cc(Cl)cc12 [Example 204, 9,11-Dichloro-7-thia-2,5-diazatricyclo[6.4.0.0^2,6]dodeca-1(8),3,5,9,11-pentaene-4-carboxylic acid] | 940 nM
10 | O=C(O)c1cn2c(n1)sc1c(Cl)c(Br)ccc12 [Example 243, 10-Bromo-9-chloro-7-thia-2,5-diazatricyclo[6.4.0.0^2,6]dodeca-1(8),3,5,9,11-pentaene-4-carboxylic acid] | 210 nM
11 | CS(=O)(=O)Nc1c(C(=O)O)nc2sc3c(Cl)c(F)ccc3n12 [Example 232, 9-Chloro-10-fluoro-3-methanesulfonamido-7-thia-2,5-diazatricyclo[6.4.0.0^2,6]dodeca-1(8),3,5,9,11-pentaene-4-carboxylic acid] | 200 nM
12 | COc1ccc(-c2c(C(=O)O)nc3sc4c(n23)CCC(C(C)(C)C)C4)cc1 (centres unmarked) [Example 190, 10-tert-Butyl-3-(4-methoxyphenyl)-7-thia-2,5-diazatricyclo[6.4.0.0^2,6]dodeca-1(8),3,5-triene-4-carboxylic acid] | 1680 nM
13 | CCS(=O)(=O)NC(=O)c1cn2c(n1)sc1c(Cl)c(Cl)ccc12 [Example 24, 9,10-Dichloro-N-(ethanesulfonyl)-7-thia-2,5-diazatricyclo[6.4.0.0^2,6]dodeca-1(8),3,5,9,11-pentaene-4-carboxamide] | 340 nM
14 | O=C(O)c1cn2c(n1)sc1cc(Cl)cc(Cl)c12 [Example 16, 10,12-Dichloro-7-thia-2,5-diazatricyclo[6.4.0.0^2,6]dodeca-1(8),3,5,9,11-pentaene-4-carboxylic acid] | 1590 nM
15 | O=C(O)c1cn2c(n1)sc1cccc(Cl)c12 [Example 7, 12-Chloro-7-thia-2,5-diazatricyclo[6.4.0.0^2,6]dodeca-1(8),3,5,9,11-pentaene-4-carboxylic acid] | 2160 nM
16 | COC(=O)CCS(=O)(=O)NC(=O)c1cn2c(n1)sc1c(Cl)c(Cl)ccc12 [Example 27, Methyl 3-[({9,10-dichloro-7-thia-2,5-diazatricyclo[6.4.0.0^2 6]dodeca-1(8),3,5,9,11-pentaen-4-yl}formamido)sulfonyl]propanoate] | 70 nM
17 | O=C(O)C1CN2C(=N1)Sc1c2ccc(F)c1Cl (centres unmarked) [Example 228, 9-Chloro-10-fluoro-7-thia-2,5-diazatricyclo[6.4.0.0^2,6]dodeca-1(8),5,9,11-tetraene-4-carboxylic acid] | 260 nM
18 | CCN(CC)CCCS(=O)(=O)NC(=O)c1cn2c(n1)sc1c(Cl)c(Cl)ccc12 [Example 29, 9,10-Dichloro-N-[3-(diethylamino)propanesulfonyl]-7-thia-2,5-diazatricyclo[6.4.0.0^2,6]dodeca-1(8),3,5,9,11-pentaene-4-carboxamide] | 460 nM
19 | CC(=O)NCc1c(C(=O)O)nc2sc3c(n12)CCC(C(C)(C)C)C3 (centres unmarked) [Example 255, 10-tert-Butyl-3-(acetamidomethyl)-7-thia-2,5-diazatricyclo[6.4.0.0^2,6]dodeca-1(8),3,5-triene-4-carboxylic acid] | 1150 nM
20 | O=C(O)c1cn2c(n1)sc1cc(F)ccc12 [Example 10, 10-Fluoro-7-thia-2,5-diazatricyclo[6.4.0.0^2,6]dodeca-1(8),3,5,9,11-pentaene-4-carboxylic acid] | 2970 nM
21 | CC1(C)Cc2c(sc3nc(C(=O)O)c(C4CNC4)n23)C(C)(C)C1 [Example 235, 3-(Azetidin-3-yl)-9,9,11,11-tetramethyl-7-thia-2,5-diazatricyclo[6.4.0.0^2,6]dodeca-1(8),3,5-triene-4-carboxylic acid] | 1680 nM

Further molecules by falling IC50, results first:

Row | IC50 | Structure (SMILES)
22 | 3410 nM | O=C(O)c1nc2sc3cc(OC(F)(F)F)ccc3n2c1Br [Example 17, 3-Bromo-10-(trifluoromethoxy)-7-thia-2,5-diazatricyclo[6.4.0.0^2,6]dodeca-1(8),3,5,9,11-pentaene-4-carboxylic acid]
23 | 3100 nM | CC(C)(C)C1CCc2c(sc3nc(CC(=O)O)cn23)C1 (centres unmarked) [Example 45, 2-{10-tert-Butyl-7-thia-2,5-diazatricyclo[6.4.0.0^2,6]dodeca-1(8),3,5-trien-4-yl}acetic acid]
24 | 1680 nM | CC(C)(C)C1CCc2c(sc3nc(C(=O)O)c(Br)n23)C1 (centres unmarked) [Example 253, 3-Bromo-10-tert-butyl-7-thia-2,5-diazatricyclo[6.4.0.0^2,6]dodeca-1(8),3,5-triene-4-carboxylic acid]
25 | 1200 nM | CC1CCCc2c1sc1nc(C(=O)NS(C)(=O)=O)cn21 (single isomer, unassigned) [Example 48, N-Methanesulfonyl-9-methyl-7-thia-2,5-diazatricyclo[6.4.0.0^2,6]dodeca-1(8),3,5-triene-4-carboxamide]
26 | 1050 nM | O=C(O)c1cn2c3c(sc2n1)CCCCC3 [Example 37, 7-Thia-2,5-diazatricyclo[6.5.0.0^2,6]trideca-1(8),3,5-triene-4-carboxylic acid]
27 | 780 nM | CC1(C(=O)NS(C)(=O)=O)CN2C(=N1)Sc1c2ccc(F)c1Cl (centres unmarked) [Example 294, 9-Chloro-10-fluoro-N-methanesulfonyl-4-methyl-7-thia-2,5-diazatricyclo[6.4.0.0^2,6]dodeca-1(8),5,9,11-tetraene-4-carboxamide]
28 | 690 nM | CC(C)CC1(C(=O)O)CN2C(=N1)Sc1c2ccc(F)c1Cl (centres unmarked) [Example 249, 9-Chloro-10-fluoro-4-(2-methylpropyl)-7-thia-2,5-diazatricyclo[6.4.0.0^2,6]dodeca-1(8),5,9,11-tetraene-4-carboxylic acid]
29 | 500 nM | CS(=O)(=O)N1CC(c2c(C(=O)O)nc3sc4c(Cl)c(F)ccc4n23)C1 [Example 293, 9-Chloro-10-fluoro-3-(1-methanesulfonylazetidin-3-yl)-7-thia-2,5-diazatricyclo[6.4.0.0^2,6]dodeca-1(8),3,5,9,11-pentaene-4-carboxylic acid]
30 | 440 nM | CC1(C)Cc2c(sc3nc(C(=O)NS(C)(=O)=O)cn23)C1(C)C [Example 52, N-Methanesulfonyl-4,4,5,5-tetramethyl-7-thia-1,9-diazatricyclo[6.3.0.0^2,6]undeca-2(6),8,10-triene-10-carboxamide]
31 | 320 nM | COCCS(=O)(=O)NC(=O)c1cn2c(n1)sc1c(Cl)c(Cl)ccc12 [Example 23, 9,10-Dichloro-N-(2-methoxyethanesulfonyl)-7-thia-2,5-diazatricyclo[6.4.0.0^2,6]dodeca-1(8),3,5,9,11-pentaene-4-carboxamide]
32 | 240 nM | Cc1c(C(=O)O)nc2sc3c(n12)CCC(C(C)(C)C)C3 (centres unmarked) [Example 195, 10-tert-Butyl-3-methyl-7-thia-2,5-diazatricyclo[6.4.0.0^2,6]dodeca-1(8),3,5-triene-4-carboxylic acid]
